{
  "source": "patent US9993494B2",
  "about": "“Compositions and methods for treating fibrotic disease” (eFFECTOR Therapeutics, Inc., priority 2014, dated 2018)",
  "test_system": "normal human lung fibroblasts",
  "experiment": "Ribosomal profiling: translational efficiency in TGFβ-treated fibroblasts",
  "type": "cell-based",
  "conditions": "TGFβ-treated fibroblasts",
  "procedure": "Ribosomal profiling allows for measurement of changes in transcription and translation on a genome-wide basis accompanying TGFβ-dependent transformation of fibroblasts to myofibroblasts. Ribosomal profiles of the TGFβ-treated fibroblasts from Example 1 (about 6×10^6 cells/10 cm plate) were prepared and analyzed for changes in translational efficiencies with respect to potential disease-associated cellular changes accompanying this TGFβ-induced transformation.\nBriefly, cells were washed with cold PBS supplemented with cycloheximide and lysed with 1× mammalian cell lysis buffer for 10 minutes on ice. Lysates were clarified by centrifugation for 10 minutes at 14,000 rpm and supernatants were collected. Cell lysates were processed to generate ribosomal protected fragments and total mRNA according to the instructions included with the ARTseq Ribosome Profiling Kit (Illumina, San Diego, Calif.). Sequencing of total RNA (RNA) and of ribosome-protected fragments of RNA (RPF) was carried out using RNA-Seq methodology according to the manufacturer's instructions (Illumina). To analyze the ribosomal profiles, RNA-Seq reads were processed with tools from the FASTX-Toolkit (fastq_quality_trimmer, fastx_clipper and fastx_trimmer). Unprocessed and processed reads were evaluated for a variety of quality measures using FastQC, and processed reads were mapped to the human genome using TopHat (see, e.g., Trapnell et al., Bioinformatics 25:1105, 2009). Gene-by-gene assessment of the number of fragments strictly and uniquely mapping to the coding region of each gene was conducted using HTSeq-count, a component of the HTSeq package. […] Genes with low counts in either RPF or RNA were excluded from differential analyses. Pathway and network analyses of differential data were conducted using Ingenuity Pathway Analysis (IPA).",
  "data": [
    {"smiles": "COC(=O)[C@H]1[C@@H](O)[C@@]2(O)c3c(OC)cc(O[C@@H]4O[C@@H]([C@H](O)CO)CO[C@H]4OC)cc3O[C@@]2(c2ccc(OC)cc2)[C@@H]1c1ccccc1", "note": "[Silvestrol]", "values": [
      {"measurement": "renormalizing the translational profile of DNASE1L1", "setting": "ENSG00000013563", "result": "+ (+ = 0.9 to 1.5)"},
      {"measurement": "renormalizing the translational profile of KITLG", "setting": "ENSG00000049130", "result": "− (− = <0.9)"},
      {"measurement": "renormalizing the translational profile of ADAMTS6", "setting": "ENSG00000049192", "result": "− (− = <0.9)"},
      {"measurement": "renormalizing the translational profile of LETMD1", "setting": "ENSG00000050426", "result": "− (− = <0.9)"},
      {"measurement": "renormalizing the translational profile of PLEKHA5", "setting": "ENSG00000052126", "result": "++ (++ = 1.5 to 2.0)"},
      {"measurement": "renormalizing the translational profile of EIF4B", "setting": "ENSG00000063046", "result": "− (− = <0.9)"},
      {"measurement": "renormalizing the translational profile of RPL18", "setting": "ENSG00000063177", "result": "− (− = <0.9)"},
      {"measurement": "renormalizing the translational profile of HIPK2", "setting": "ENSG00000064393", "result": "− (− = <0.9)"},
      {"measurement": "renormalizing the translational profile of ASPM", "setting": "ENSG00000066279", "result": "+ (+ = 0.9 to 1.5)"},
      {"measurement": "renormalizing the translational profile of RASSF1", "setting": "ENSG00000068028", "result": "− (− = <0.9)"},
      {"measurement": "renormalizing the translational profile of PABPC1", "setting": "ENSG00000070756", "result": "− (− = <0.9)"},
      {"measurement": "renormalizing the translational profile of RPL31", "setting": "ENSG00000071082", "result": "− (− = <0.9)"},
      {"measurement": "renormalizing the translational profile of PLD1", "setting": "ENSG00000075651", "result": "++ (++ = 1.5 to 2.0)"},
      {"measurement": "renormalizing the translational profile of EDN1", "setting": "ENSG00000078401", "result": "++ (++ = 1.5 to 2.0)"},
      {"measurement": "renormalizing the translational profile of AURKA", "setting": "ENSG00000087586", "result": "− (− = <0.9)"},
      {"measurement": "renormalizing the translational profile of EPB41L1", "setting": "ENSG00000088367", "result": "+ (+ = 0.9 to 1.5)"},
      {"measurement": "renormalizing the translational profile of RPL6", "setting": "ENSG00000089009", "result": "− (− = <0.9)"},
      {"measurement": "renormalizing the translational profile of P2RX7", "setting": "ENSG00000089041", "result": "− (− = <0.9)"},
      {"measurement": "renormalizing the translational profile of KDM2B", "setting": "ENSG00000089094", "result": "− (− = <0.9)"},
      {"measurement": "renormalizing the translational profile of RPLP0", "setting": "ENSG00000089157", "result": "− (− = <0.9)"},
      {"measurement": "renormalizing the translational profile of IGBP1", "setting": "ENSG00000089289", "result": "− (− = <0.9)"},
      {"measurement": "renormalizing the translational profile of IRAK3", "setting": "ENSG00000090376", "result": "+ (+ = 0.9 to 1.5)"},
      {"measurement": "renormalizing the translational profile of PABPC4", "setting": "ENSG00000090621", "result": "+ (+ = 0.9 to 1.5)"},
      {"measurement": "renormalizing the translational profile of FMO2", "setting": "ENSG00000094963", "result": "− (− = <0.9)"},
      {"measurement": "renormalizing the translational profile of ACOT7", "setting": "ENSG00000097021", "result": "− (− = <0.9)"},
      {"measurement": "renormalizing the translational profile of ATP5D", "setting": "ENSG00000099624", "result": "− (− = <0.9)"},
      {"measurement": "renormalizing the translational profile of LGALS1", "setting": "ENSG00000100097", "result": "− (− = <0.9)"},
      {"measurement": "renormalizing the translational profile of EIF3L", "setting": "ENSG00000100129", "result": "− (− = <0.9)"},
      {"measurement": "renormalizing the translational profile of RPL3", "setting": "ENSG00000100316", "result": "− (− = <0.9)"},
      {"measurement": "renormalizing the translational profile of CEP192", "setting": "ENSG00000101639", "result": "+ (+ = 0.9 to 1.5)"},
      {"measurement": "renormalizing the translational profile of AMMECR1", "setting": "ENSG00000101935", "result": "− (− = <0.9)"},
      {"measurement": "renormalizing the translational profile of PLP2", "setting": "ENSG00000102007", "result": "− (− = <0.9)"},
      {"measurement": "renormalizing the translational profile of EIF3E", "setting": "ENSG00000104408", "result": "− (− = <0.9)"},
      {"measurement": "renormalizing the translational profile of EEF1D", "setting": "ENSG00000104529", "result": "− (− = <0.9)"},
      {"measurement": "renormalizing the translational profile of C19orf53", "setting": "ENSG00000104979", "result": "− (− = <0.9)"},
      {"measurement": "renormalizing the translational profile of GLTSCR2", "setting": "ENSG00000105373", "result": "− (− = <0.9)"},
      {"measurement": "renormalizing the translational profile of RAB3D", "setting": "ENSG00000105514", "result": "− (− = <0.9)"},
      {"measurement": "renormalizing the translational profile of RPL18A", "setting": "ENSG00000105640", "result": "− (− = <0.9)"},
      {"measurement": "renormalizing the translational profile of COMP", "setting": "ENSG00000105664", "result": "− (− = <0.9)"},
      {"measurement": "renormalizing the translational profile of GLCCI1", "setting": "ENSG00000106415", "result": "+ (+ = 0.9 to 1.5)"},
      {"measurement": "renormalizing the translational profile of GDF10", "setting": "ENSG00000107623", "result": "− (− = <0.9)"},
      {"measurement": "renormalizing the translational profile of RPL28", "setting": "ENSG00000108107", "result": "− (− = <0.9)"},
      {"measurement": "renormalizing the translational profile of RPL19", "setting": "ENSG00000108298", "result": "− (− = <0.9)"},
      {"measurement": "renormalizing the translational profile of RASD1", "setting": "ENSG00000108551", "result": "+++ (+++ = >2.0)"},
      {"measurement": "renormalizing the translational profile of NAT9", "setting": "ENSG00000109065", "result": "− (− = <0.9)"},
      {"measurement": "renormalizing the translational profile of RPL34", "setting": "ENSG00000109475", "result": "− (− = <0.9)"},
      {"measurement": "renormalizing the translational profile of CRYAB", "setting": "ENSG00000109846", "result": "− (− = <0.9)"},
      {"measurement": "renormalizing the translational profile of GAPDH", "setting": "ENSG00000111640", "result": "− (− = <0.9)"},
      {"measurement": "renormalizing the translational profile of C12orf57", "setting": "ENSG00000111678", "result": "− (− = <0.9)"},
      {"measurement": "renormalizing the translational profile of MDFI", "setting": "ENSG00000112559", "result": "− (− = <0.9)"},
      {"measurement": "renormalizing the translational profile of HBEGF", "setting": "ENSG00000113070", "result": "+ (+ = 0.9 to 1.5)"},
      {"measurement": "renormalizing the translational profile of RPL24", "setting": "ENSG00000114391", "result": "− (− = <0.9)"},
      {"measurement": "renormalizing the translational profile of EEF1B2", "setting": "ENSG00000114942", "result": "− (− = <0.9)"},
      {"measurement": "renormalizing the translational profile of IFIH1", "setting": "ENSG00000115267", "result": "− (− = <0.9)"},
      {"measurement": "renormalizing the translational profile of DPH5", "setting": "ENSG00000117543", "result": "− (− = <0.9)"},
      {"measurement": "renormalizing the translational profile of PPL", "setting": "ENSG00000118898", "result": "− (− = <0.9)"},
      {"measurement": "renormalizing the translational profile of PLEKHG1", "setting": "ENSG00000120278", "result": "− (− = <0.9)"},
      {"measurement": "renormalizing the translational profile of LIAS", "setting": "ENSG00000121897", "result": "− (− = <0.9)"},
      {"measurement": "renormalizing the translational profile of GPSM2", "setting": "ENSG00000121957", "result": "− (− = <0.9)"},
      {"measurement": "renormalizing the translational profile of RPL21", "setting": "ENSG00000122026", "result": "− (− = <0.9)"},
      {"measurement": "renormalizing the translational profile of RPL5", "setting": "ENSG00000122406", "result": "− (− = <0.9)"},
      {"measurement": "renormalizing the translational profile of INHBA", "setting": "ENSG00000122641", "result": "+ (+ = 0.9 to 1.5)"},
      {"measurement": "renormalizing the translational profile of CIT", "setting": "ENSG00000122966", "result": "+++ (+++ = >2.0)"},
      {"measurement": "renormalizing the translational profile of RPL23", "setting": "ENSG00000125691", "result": "− (− = <0.9)"}
    ]}
  ]
}
